The values below come from patent US8324272B2 (XenoPort, Inc., priority 2006, dated 2012).

The nature of series [1]: Hygroscopicity of crystalline hydrochloride (9) crystallized from various solvents. The class given is physicochemical. The protocol: Crystallization of (1R,2R)-1-methyl-2-(2-methylpropanoyloxy)propyl (2S)-2-amino-3-(3,4-dihydroxyphenyl)propanoate hydrochloride (9) was crystallized using the solvents listed in Table 1 on an 80 mg scale.
The conditions of series [2]: oral administration; cited from earlier work.

Structures are written as SMILES. “And” between values parts separate entries of the source, which are not always exact repeats. Equal entries are not always repeated.

`CC(C)C(=O)O[C@H](C)[C@@H](C)OC(=O)[C@@H](N)Cc1ccc(O)c(O)c1.CS(=O)(=O)O` had a melting point of 181.2 to 186 °C.
On to `CC(C)C(=O)O[C@H](C)[C@@H](C)OC(=O)[C@@H](N)Cc1ccc(O)c(O)c1.Cl` [Compound 9, (1R,2R)-1-Methyl-2-(2-methylpropanoyloxy)propyl (2S)-2-Amino-3-(3,4-dihydroxyphenyl)propanoate Hydrochloride], for which the melting point was 164.7 to 166.2 °C and 164.9 to 166.4 °C. For the same molecule, the Hygroscopicity result in series [1] (crystallized from acetonitrile) was “None”. For the same molecule, in series [1] (crystallized from isopropanol-ethyl acetate), the Hygroscopicity entry is listed as “None”. In addition, in series [1] (crystallized from isopropanol-methyl tert-butyl ether), the Hygroscopicity entry was “None”. Also, the Hygroscopicity entry in series [1] (crystallized from tetrahydrofuran-diisopropyl ether) is on record as “None”. The Hygroscopicity result in series [1] (crystallized from tetrahydrofuran-hexane) was “None”. The Hygroscopicity entry in series [1] (crystallized from tetrahydrofuran-methyl tert-butyl ether) is listed as “None”. Besides, the Hygroscopicity entry in series [1] (crystallized from water-acetonitrile) is “None”. In series [1] (crystallized from water-methyl tert-butyl ether), the Hygroscopicity entry was “None”.
In the case of `CS(=O)(=O)O.C[C@@H](OC(=O)c1ccccc1)[C@@H](C)OC(=O)[C@@H](N)Cc1ccc(O)c(O)c1` [Compound 11, (1R,2R)-1-Methyl-2-phenylcarbonyloxypropyl (2S)-2-Amino-3-(3,4-dihydroxyphenyl)propanoate Mesylate], the melting point is 94.4 °C (dec.).
Take `CC(C)(C)C(=O)Oc1ccc(C[C@H](N)C(=O)O)cc1O` [NB-355]: in series [2], the “duration of circulating levodopa” value is recorded as “prolonged” and the “plasma concentrations of levodopa” value is given as “low”.

For orientation: melting point means the temperature of the solid-liquid transition.
